According to ChEMBL document CHEMBL5241130, “Integrating a phenotypic screening with a structural simplification strategy to identify 4-phenoxy-quinoline derivatives to potently disrupt the mitotic localization of Aurora kinase B” (Bioorg Med Chem, 2023):
pIC50: −log10 of the molar value. ≈ marks a conversion by molar mass, not a printed value. Calls of active or inactive are those of the source. The calls are words filed in the database; no cut-off is given here.

Legend:
[1] = Toxicity in BALB/c nude mouse xenografted with human HCT-116 cells assessed as body weight at 50 mg/kg, po bid for 7 days; type: organism-based; conditions: in vivo, 168 h, time 7 day
NCI-H23 = test: Cytotoxicity against human NCI-H23 cells assessed as cell growth inhibition incubated for 3 days by MTT assay; type: functional, cell-based; conditions: time 3.0 day
[2] = biological target: Serine/threonine-protein kinase PLK4 (Homo sapiens) (UniProt O00444); test: Inhibition of PLK4 (unknown origin) by bio-chip based analysis
[3] = biological target: Aurora kinase B (Homo sapiens) (UniProt Q96GD4); test: Disruption of mitotic localization of AURKB in human RPE-MYC cells expressing BCL2 assessed as disruption of MKLP1 localization at spindle mid-zone at 40 nM measured after 6 hrs by immunofluorescence staining analysis; type: cell-based
[4] = Clearance in Wistar rat at 2 mg/kg, iv measured after 24 hrs by LC-MS/MS analysis; type: ADME, organism-based; conditions: in vivo
[5] = MRT (0 to infinity) in Wistar rat at 2 mg/kg, iv by LC-MS/MS analysis; type: ADME, organism-based; conditions: in vivo
Mus musculus = test: Induction of polyploidy in BALB/c nude mouse xenografted with human HCT-116 cells assessed as increase in polyploid cells in tumor at 50 mg/kg, po bid for 7 days by immunohistochemical staining based analysis relative to control; type: functional; conditions: time 7 day
[6] = Toxicity in BALB/c nude mouse xenografted with human HCT-116 cells assessed as animal's well being at 50 mg/kg, po bid for 7 days; type: organism-based; conditions: in vivo, 168 h, time 7 day
[7] = biological target: Aurora kinase B (Homo sapiens) (UniProt Q96GD4); test: Disruption of mitotic localization of AURKB in human RPE-MYC H2B-GFP cells assessed as induction of mitotic arrest measured after 24 hrs by fluorescence high content cell imaging analysis; type: cell-based
[8] = Drug degradation in mouse plasma at 1 to 10 uM incubated for 2 hrs by LC-MS analysis; type: ADME, cell-free; conditions: dose 1-10 µM, read-out: Drug degradation
[9] = Drug uptake in tumor of BALB/c nude mouse xenografted with human HCT-116 cells at 50 mg/kg, po bid for 7 days and measured at 6 hrs post-last drug administration by LC-MS/MS analysis; type: ADME, organism-based, Neoplasm; conditions: time 7 day, read-out: Drug uptake
[10] = biological target: Rho-associated protein kinase 2 (Homo sapiens) (UniProt O75116); test: Inhibition of ROCK2 (unknown origin) by bio-chip based analysis
[11] = biological target: Discoidin domain-containing receptor 2 (Homo sapiens) (UniProt Q16832); test: Inhibition of human recombinant DDR2 at 2 uM by KINOMEscan assay
[12] = Apparent volume of distribution in Wistar rat at 2 mg/kg, iv measured after 24 hrs by LC-MS/MS analysis; type: ADME, organism-based; conditions: in vivo, read-out: Vz
MDA-MB-231 = test: Cytotoxicity against human MDA-MB-231 cells assessed as cell growth inhibition incubated for 3 days by MTT assay; type: functional, cell-based; conditions: time 3.0 day
[13] = Lipophilicity, log D of the compound in Octanol and HCl buffer at pH 2.2 incubated for 24 hrs under shaking condition followed by incubation for 1 hr without shaking by LC-MS analysis; type: physicochemical
[14] = biological target: Tyrosine-protein kinase ABL1 (Homo sapiens) (UniProt P00519); test: Inhibition of human recombinant ABL1 at 2 uM by KINOMEscan assay
HCT-116 = test: Cytotoxicity against human HCT-116 cells assessed as cell growth inhibition incubated for 3 days by MTT assay; type: functional, cell-based; conditions: time 3.0 day
A549 = test: Cytotoxicity against human A549 cells assessed as cell growth inhibition incubated for 3 days by MTT assay; type: functional, cell-based; conditions: time 3.0 day
[15] = Drug degradation in HCl buffer at pH 2.2 measured after 72 hrs by LC-MS analysis; type: physicochemical; conditions: read-out: Drug degradation
[16] = biological target: Aurora kinase B (Homo sapiens) (UniProt Q96GD4); test: Inhibition of AURKB in human RPE-MYC cells expressing BCL2 assessed as inhibition of histone H3 phosphorylation at Ser10 residue at 40 nM measured after 6 hrs by immunofluorescence staining analysis; type: cell-based
[17] = Ratio of drug uptake in tumor of BALB/c nude mouse xenografted with human HCT-116 cells at 50 mg/kg, po bid for 7 days and measured at 6 hrs post-last drug administration to MEC for Disruption of mitotic localization of AURKB in human RPE-MYC H2B-GFP cells assessed as induction of polyploidy
[18] = Drug degradation in PBS buffer at pH 7.4 measured after 72 hrs by LC-MS analysis; type: physicochemical; conditions: read-out: Drug degradation
[19] = Ratio of AUC (0 to 6 hrs) in BALB/c nude mouse xenografted with human HCT-116 cells at 50 mg/kg, po bid for 7 days to AUC (0 to 6 hrs) in BALB/c nude mouse xenografted with human HCT-116 cells administered as single dose; type: ADME, organism-based; conditions: in vivo
[20] = biological target: Mast/stem cell growth factor receptor Kit (Homo sapiens, UniProt P10721); test: Inhibition of c-Kit (unknown origin); type: toxicity
[21] = Plasma concentration in BALB/c nude mouse xenografted with human HCT-116 cells at 50 mg/kg, po bid for 7 days and measured at 12 hrs post-last drug administration by LC-MS/MS analysis; type: ADME, organism-based; conditions: time 7 day
[22] = Kinetic solubility of the compound in PBS buffer at pH 7.4 measured after 72 hrs by LC-MS analysis; type: physicochemical; conditions: read-out: Kinetic_solubility
[23] = Half life in Wistar rat at 2 mg/kg, iv measured for 24 hrs by LC-MS/MS analysis; type: ADME, organism-based; conditions: in vivo
[24] = biological target: Discoidin domain-containing receptor 2 (Homo sapiens, UniProt Q16832); test: Inhibition of DDR2 (unknown origin) assessed as inhibition of DDR2 interaction with DNA-bound ligand by qPCR analysis
NCI-N87 = test: Cytotoxicity against human NCI-N87 cells assessed as cell growth inhibition incubated for 3 days by MTT assay; type: functional, cell-based; conditions: time 3.0 day
[25] = biological target: Receptor-type tyrosine-protein kinase FLT3 (Homo sapiens, UniProt P36888); test: Inhibition of FLT3 (unknown origin); type: toxicity
[26] = Ratio of drug uptake in tumor of BALB/c nude mouse xenografted with human HCT-116 cells at 50 mg/kg, po bid for 7 days and measured at 6 hrs post-last drug administration to MEC for disruption of mitotic localization of AURKB in human RPE-MYC H2B-GFP cells assessed as induction of mitotic arrest measured after 24 hrs
[27] = biological target: Aurora kinase B (Homo sapiens) (UniProt Q96GD4); test: Disruption of mitotic localization of AURKB in human RPE-MYC cells expressing BCL2 assessed as mitotic index at 40 nM measured after 6 hrs by fluorescence high content cell imaging analysis (reference value: 5.3%); type: cell-based
[28] = biological target: Rho-associated protein kinase 1 (Homo sapiens) (UniProt Q13464); test: Inhibition of ROCK1 (unknown origin) by bio-chip based analysis
[29] = biological target: Serine/threonine-protein kinase PLK2 (Homo sapiens) (UniProt Q9NYY3); test: Inhibition of PLK2 (unknown origin) by bio-chip based analysis
SW480 = test: Cytotoxicity against human SW480 cells assessed as cell growth inhibition incubated for 3 days by MTT assay; type: functional, cell-based; conditions: time 3.0 day

Chain of Aurora kinase B (Homo sapiens) (Q96GD4 whole entry): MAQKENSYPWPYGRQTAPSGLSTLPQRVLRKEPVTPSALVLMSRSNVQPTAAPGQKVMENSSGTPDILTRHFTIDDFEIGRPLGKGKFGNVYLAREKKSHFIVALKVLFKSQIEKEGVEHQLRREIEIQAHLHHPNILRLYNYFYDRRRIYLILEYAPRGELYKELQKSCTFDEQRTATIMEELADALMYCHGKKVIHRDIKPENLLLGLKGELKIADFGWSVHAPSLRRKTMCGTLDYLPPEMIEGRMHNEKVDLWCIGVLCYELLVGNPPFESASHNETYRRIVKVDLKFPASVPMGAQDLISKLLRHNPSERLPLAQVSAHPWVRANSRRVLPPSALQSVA
Chain of Serine/threonine-protein kinase PLK4 (Homo sapiens) (O00444 whole entry): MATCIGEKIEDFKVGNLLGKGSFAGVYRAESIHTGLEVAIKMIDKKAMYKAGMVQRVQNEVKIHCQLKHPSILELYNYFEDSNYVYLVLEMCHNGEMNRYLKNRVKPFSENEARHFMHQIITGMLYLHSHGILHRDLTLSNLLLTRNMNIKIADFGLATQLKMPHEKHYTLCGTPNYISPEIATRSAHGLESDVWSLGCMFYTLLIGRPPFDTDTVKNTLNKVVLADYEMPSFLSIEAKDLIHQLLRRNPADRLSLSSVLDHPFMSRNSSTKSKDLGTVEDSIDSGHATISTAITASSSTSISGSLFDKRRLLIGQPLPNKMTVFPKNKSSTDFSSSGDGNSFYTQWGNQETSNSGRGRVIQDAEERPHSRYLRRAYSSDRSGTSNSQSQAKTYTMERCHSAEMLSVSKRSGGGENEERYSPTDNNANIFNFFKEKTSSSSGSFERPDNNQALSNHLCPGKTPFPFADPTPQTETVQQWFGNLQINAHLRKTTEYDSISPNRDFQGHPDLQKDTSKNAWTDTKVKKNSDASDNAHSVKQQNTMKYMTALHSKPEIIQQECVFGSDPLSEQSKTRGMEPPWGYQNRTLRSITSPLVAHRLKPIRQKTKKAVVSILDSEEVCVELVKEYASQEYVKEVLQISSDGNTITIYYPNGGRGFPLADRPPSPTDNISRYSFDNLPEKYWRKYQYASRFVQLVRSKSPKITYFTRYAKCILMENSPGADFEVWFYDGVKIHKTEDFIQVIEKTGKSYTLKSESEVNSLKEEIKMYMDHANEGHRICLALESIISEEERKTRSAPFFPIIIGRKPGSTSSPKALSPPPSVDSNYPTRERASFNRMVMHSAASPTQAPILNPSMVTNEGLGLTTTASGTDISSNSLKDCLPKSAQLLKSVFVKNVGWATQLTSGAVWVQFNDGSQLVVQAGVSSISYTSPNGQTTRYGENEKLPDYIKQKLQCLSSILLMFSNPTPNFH
Chain of Rho-associated protein kinase 2 (Homo sapiens) (O75116 whole entry, looked up, the tested form may be a part): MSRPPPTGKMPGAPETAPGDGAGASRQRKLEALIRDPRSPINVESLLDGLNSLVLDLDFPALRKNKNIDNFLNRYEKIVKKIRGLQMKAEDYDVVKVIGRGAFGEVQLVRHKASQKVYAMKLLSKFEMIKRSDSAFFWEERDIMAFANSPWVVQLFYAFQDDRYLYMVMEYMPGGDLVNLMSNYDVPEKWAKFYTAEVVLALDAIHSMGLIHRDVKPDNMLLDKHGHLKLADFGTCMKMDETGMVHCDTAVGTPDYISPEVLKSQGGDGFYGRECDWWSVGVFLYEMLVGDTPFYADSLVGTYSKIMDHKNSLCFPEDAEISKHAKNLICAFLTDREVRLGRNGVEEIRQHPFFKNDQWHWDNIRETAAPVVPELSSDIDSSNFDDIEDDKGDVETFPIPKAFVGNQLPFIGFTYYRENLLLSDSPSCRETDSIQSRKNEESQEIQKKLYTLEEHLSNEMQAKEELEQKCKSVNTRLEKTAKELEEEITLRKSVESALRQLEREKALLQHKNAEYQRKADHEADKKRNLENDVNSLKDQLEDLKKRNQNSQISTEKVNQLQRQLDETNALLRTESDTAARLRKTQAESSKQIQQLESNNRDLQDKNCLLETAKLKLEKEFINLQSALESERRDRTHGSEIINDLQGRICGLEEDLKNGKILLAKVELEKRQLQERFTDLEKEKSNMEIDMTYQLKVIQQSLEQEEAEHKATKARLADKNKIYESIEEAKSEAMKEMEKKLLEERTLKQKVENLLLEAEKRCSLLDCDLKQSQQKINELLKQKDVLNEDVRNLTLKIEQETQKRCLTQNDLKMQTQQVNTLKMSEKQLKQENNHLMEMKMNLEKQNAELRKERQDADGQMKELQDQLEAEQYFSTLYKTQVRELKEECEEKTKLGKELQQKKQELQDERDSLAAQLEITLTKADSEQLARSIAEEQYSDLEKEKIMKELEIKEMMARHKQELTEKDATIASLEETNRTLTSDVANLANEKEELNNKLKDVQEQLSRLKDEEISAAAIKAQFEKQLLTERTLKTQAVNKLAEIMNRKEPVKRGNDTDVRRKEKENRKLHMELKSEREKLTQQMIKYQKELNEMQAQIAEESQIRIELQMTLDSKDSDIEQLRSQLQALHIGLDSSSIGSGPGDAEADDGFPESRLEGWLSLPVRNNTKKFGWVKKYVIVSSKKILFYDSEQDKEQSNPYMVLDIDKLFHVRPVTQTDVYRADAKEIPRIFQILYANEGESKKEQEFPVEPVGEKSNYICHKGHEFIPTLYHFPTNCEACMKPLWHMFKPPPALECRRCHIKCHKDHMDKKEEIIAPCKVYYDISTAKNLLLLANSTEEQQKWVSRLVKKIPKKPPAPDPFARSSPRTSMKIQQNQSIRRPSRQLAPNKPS
Chain of Rho-associated protein kinase 1 (Homo sapiens) (Q13464 2-1354 limits assumed): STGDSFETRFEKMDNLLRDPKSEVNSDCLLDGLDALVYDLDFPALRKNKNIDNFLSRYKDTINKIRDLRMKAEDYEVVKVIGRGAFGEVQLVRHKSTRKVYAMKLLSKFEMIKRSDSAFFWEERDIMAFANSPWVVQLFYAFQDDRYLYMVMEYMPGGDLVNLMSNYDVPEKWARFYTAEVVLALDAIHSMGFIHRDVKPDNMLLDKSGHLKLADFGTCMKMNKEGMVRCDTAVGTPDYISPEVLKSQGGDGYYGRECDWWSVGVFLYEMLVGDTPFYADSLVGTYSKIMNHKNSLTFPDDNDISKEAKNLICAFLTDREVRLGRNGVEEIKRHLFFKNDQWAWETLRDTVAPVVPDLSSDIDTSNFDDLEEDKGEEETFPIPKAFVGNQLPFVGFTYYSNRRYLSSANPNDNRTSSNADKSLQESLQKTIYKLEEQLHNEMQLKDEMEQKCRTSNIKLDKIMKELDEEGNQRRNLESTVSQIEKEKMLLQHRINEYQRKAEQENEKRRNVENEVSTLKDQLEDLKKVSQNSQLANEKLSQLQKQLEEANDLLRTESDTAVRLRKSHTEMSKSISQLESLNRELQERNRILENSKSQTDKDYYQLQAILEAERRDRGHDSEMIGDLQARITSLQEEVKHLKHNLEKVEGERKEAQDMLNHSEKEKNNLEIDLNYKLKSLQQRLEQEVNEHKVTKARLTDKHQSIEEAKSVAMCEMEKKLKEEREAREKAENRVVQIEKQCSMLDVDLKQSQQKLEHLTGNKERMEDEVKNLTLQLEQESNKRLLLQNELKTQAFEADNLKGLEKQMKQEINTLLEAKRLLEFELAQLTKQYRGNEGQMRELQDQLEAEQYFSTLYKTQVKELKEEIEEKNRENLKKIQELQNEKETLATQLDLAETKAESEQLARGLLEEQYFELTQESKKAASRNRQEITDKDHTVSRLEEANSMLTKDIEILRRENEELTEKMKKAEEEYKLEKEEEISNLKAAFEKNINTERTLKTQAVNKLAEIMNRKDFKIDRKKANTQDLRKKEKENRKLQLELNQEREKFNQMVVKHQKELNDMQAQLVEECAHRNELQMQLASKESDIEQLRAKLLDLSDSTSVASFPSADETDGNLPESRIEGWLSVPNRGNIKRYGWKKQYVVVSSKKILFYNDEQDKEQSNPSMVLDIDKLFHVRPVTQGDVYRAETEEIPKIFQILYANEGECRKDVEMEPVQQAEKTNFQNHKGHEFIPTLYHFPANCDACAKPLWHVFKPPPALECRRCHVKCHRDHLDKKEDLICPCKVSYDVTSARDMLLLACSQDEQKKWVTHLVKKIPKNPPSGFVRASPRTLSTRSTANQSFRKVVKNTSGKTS
Chain of Discoidin domain-containing receptor 2 (Homo sapiens) (Q16832 whole entry, the tested form may be a part): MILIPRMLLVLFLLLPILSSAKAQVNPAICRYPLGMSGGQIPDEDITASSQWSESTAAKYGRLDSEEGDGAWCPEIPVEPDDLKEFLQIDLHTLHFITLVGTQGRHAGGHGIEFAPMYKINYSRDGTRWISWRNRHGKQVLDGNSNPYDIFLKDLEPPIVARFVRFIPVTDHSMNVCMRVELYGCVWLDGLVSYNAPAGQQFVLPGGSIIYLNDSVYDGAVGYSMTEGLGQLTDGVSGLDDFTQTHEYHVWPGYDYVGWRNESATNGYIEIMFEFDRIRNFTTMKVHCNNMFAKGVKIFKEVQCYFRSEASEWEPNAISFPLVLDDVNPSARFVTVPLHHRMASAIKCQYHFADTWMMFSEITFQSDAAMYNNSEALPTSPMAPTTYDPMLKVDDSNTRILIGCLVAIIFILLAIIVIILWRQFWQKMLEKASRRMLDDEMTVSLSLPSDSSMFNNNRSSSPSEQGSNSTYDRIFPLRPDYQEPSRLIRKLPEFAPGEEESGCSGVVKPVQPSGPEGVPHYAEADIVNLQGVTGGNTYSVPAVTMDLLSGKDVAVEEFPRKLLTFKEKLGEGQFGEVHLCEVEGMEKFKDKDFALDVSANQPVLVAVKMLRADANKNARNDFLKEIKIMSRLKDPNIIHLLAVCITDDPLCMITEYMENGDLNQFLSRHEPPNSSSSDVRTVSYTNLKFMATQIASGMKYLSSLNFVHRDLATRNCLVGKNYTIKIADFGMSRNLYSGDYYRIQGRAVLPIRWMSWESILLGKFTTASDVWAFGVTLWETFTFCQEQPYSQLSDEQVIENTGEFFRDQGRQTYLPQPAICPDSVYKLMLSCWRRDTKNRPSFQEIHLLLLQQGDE
Chain of Discoidin domain-containing receptor 2 (Q16832 whole entry, the tested form may be a part): as above

COc1cc(NC(C)=O)cc(Oc2ccnc3ccc(OC)cc23)c1
Activity [1]: Non-Toxic | Activity (NCI-H23): Active | inhibition [2]: inactive | Activity [3]: Active | clearance [4]: 29.3 mL/min/kg | MRT inf [5]: 2.09 h | fold change (FC) (Mus musculus): 1.7 | Activity [6]: Non-Toxic | MEC [7]: 0.01 µM | metabolised at 2 h, up to 10 µM [8]: 0% | concentration at 168 h [9]: 239 ng/mL | inhibition [10]: inactive | inhibition [11]: Active | Vd [12]: 2.78 L/kg | Activity (MDA-MB-231): Active | logD at 25 h [13]: 0.31 | inhibition [14]: Active | Activity (HCT-116): Active | Activity (A549): Active | degraded at 72 h [15]: 0% | inhibition [16]: inactive | Ratio [17]: 70 | degraded at 72 h [18]: 0% | Ratio [19]: 2 | inhibition (INH) [20]: Not Active | concentration at 168 h [21]: 3.27 ng/mL | solubility kinetic at 72 h [22]: 16 µM (≈ 5.41 µg/mL) | half-life [23]: 65.4 min | pIC50 [24]: 6.65 | Activity (NCI-N87): Active | inhibition (INH) [25]: Not Active | Ratio [26]: 70 | Activity [27]: 15.3% | inhibition [28]: inactive | inhibition [29]: inactive | Activity (SW480): Active
